Active and inactive are the calls of the source.
Assays:
[1] = molecular target: Troponin, cardiac muscle (Homo sapiens, UniProt P19429+P45379+P63316); test: Fluorescence-based biochemical high throughput dose response assay for activators of the calcium sensitivity of cardiac Regulated Thin Filaments (RTF). [Related pubchem assays (depositor defined):AID493008, AID493018, AID504382, AID504383]; format: protein-complex assay
[2] = molecular target: T1, E3 ubiquitin-protein ligase XIAP (Homo sapiens, UniProt P98170); test: XIAP antagonists, biochemical, IAP family, fluorescence polarization (AID 1018); format: functional
T1 sequence (P98170 whole entry): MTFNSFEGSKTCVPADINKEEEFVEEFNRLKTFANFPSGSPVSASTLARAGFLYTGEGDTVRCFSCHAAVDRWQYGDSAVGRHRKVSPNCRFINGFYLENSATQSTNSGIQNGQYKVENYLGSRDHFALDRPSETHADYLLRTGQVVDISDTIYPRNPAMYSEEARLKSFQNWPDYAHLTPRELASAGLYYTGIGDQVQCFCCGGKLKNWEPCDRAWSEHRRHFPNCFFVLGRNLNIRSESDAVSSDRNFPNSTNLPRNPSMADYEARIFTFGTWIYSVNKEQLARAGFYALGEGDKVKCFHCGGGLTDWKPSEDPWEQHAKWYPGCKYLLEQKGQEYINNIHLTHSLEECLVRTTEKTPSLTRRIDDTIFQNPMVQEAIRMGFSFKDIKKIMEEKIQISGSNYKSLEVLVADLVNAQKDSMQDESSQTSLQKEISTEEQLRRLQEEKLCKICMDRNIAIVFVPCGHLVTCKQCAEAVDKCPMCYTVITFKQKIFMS

[3] = molecular target: T1, E3 ubiquitin-protein ligase XIAP; test: Counter Screen using XIAP-Bir3 for Chemical Antagonists of Bir1/2 domains of IAP-family anti-apoptotic proteins. [Related pubchem assays (depositor defined):AID1018, AID1449, AID1514, AID1638, AID1749, AID1750, AID488957, AID488963]
[4] = molecular target: G-protein coupled receptor 55 (Homo sapiens, UniProt Q9Y2T6); test: GPR55 antagonists blocking LPI-driven arrestin recruitment, primary screen, imaging, U2OS, beta-arrestin-GFP, LPI agonist (AID 2013); format: functional;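 further: antagonist potency measured as reduced agonist-driven arrestin aggregation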
Chain of G-protein coupled receptor 55 (Q9Y2T6 whole entry): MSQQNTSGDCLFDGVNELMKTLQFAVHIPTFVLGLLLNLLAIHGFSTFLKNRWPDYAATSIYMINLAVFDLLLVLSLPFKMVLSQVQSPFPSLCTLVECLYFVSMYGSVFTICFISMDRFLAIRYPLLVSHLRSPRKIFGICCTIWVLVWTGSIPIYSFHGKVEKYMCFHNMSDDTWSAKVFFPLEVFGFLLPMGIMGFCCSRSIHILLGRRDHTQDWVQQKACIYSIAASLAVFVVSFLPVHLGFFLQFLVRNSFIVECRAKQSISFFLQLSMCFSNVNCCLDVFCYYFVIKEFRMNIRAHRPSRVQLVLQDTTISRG

[5] = molecular target: T2, High affinity choline transporter 1 (Homo sapiens, UniProt Q9GZV3); test: CHT inhibitors, dose response, cell-based, 5-point CRC, membrane potential dye (AID 504840); format: functional
T2 sequence (Q9GZV3 whole entry): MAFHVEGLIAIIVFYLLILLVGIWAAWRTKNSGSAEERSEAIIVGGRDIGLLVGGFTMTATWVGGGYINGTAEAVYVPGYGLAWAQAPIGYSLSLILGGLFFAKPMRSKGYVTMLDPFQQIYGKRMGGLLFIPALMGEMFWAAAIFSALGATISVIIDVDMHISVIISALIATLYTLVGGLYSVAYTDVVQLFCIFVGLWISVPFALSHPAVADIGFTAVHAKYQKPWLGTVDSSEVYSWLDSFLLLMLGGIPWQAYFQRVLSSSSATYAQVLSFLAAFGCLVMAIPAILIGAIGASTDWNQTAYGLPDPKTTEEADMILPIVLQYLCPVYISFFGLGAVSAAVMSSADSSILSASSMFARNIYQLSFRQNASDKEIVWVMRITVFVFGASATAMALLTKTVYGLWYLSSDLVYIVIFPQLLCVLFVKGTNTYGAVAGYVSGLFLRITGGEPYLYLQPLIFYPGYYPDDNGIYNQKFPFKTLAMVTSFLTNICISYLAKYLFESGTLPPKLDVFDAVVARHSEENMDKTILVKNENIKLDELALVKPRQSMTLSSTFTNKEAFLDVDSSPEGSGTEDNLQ

[6] = molecular target: DNA dC->dU-editing enzyme APOBEC-3A (Homo sapiens, UniProt P31941); test: APOBEC3A DNA deaminase inhibitors, dose response, biochemical (AID 504722); format: functional
Chain of DNA dC->dU-editing enzyme APOBEC-3A (P31941 whole entry): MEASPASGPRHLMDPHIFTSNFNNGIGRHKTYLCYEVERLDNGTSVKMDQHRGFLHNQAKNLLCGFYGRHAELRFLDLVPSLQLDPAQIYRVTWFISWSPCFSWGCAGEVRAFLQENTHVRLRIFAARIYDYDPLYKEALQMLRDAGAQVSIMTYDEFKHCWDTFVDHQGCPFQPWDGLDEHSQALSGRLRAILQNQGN

[7] = molecular target: DNA dC->dU-editing enzyme APOBEC-3G (Homo sapiens, UniProt Q9HC16); test: Dose Response confirmation of small molecule APOBEC3G DNA Deaminase Inhibitors via a fluorescence-based single-stranded DNA deaminase assay. [Related pubchem assays (depositor defined):AID493012, AID493028]; format: functional
Chain of DNA dC->dU-editing enzyme APOBEC-3G (Q9HC16 whole entry): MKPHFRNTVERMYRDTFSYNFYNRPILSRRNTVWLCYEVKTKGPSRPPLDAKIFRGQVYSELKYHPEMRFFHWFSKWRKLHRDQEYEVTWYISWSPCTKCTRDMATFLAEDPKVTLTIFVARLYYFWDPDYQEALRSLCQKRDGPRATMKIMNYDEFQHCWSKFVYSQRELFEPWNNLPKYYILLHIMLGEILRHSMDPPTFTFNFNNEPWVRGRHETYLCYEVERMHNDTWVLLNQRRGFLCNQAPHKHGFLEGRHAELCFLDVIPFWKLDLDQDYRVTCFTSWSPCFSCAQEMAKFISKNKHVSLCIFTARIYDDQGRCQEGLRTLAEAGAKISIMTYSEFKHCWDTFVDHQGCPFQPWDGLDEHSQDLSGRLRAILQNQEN

Row | IC50 [2] | IC50 [3] | IC50 [4] | SMILES | also measured
1 | > 100 µM (not active) | > 100 µM (inactive) | – | COc1nc(NS(=O)(=O)c2ccc(C)cc2)nc(C)c1Cl | –
2 | – | – | 4.89 µM (active) | O=C(Nc1ccccc1N1CCOCC1)c1cc(-c2ccncc2)nc2ccccc12 | –
3 | > 100 µM (not active) | > 100 µM (inactive) | – | O=C(O)CCN(Cc1ccccc1)S(=O)(=O)c1ccccc1Cl | –
4 | – | – | 1.7 µM (active) | NNC(=O)COc1ccc(-c2[nH]nc(C(F)(F)F)c2-c2ccc(Br)cc2)c(O)c1 | –

The next lines start with the molecule.

Row | SMILES | IC50 [2] | IC50 [3] | IC50 [4] | also measured
5 | Cc1cc(N2CCCC2)ccc1C=C(C#N)C#N | – | – | – | EC50 [1]: 4.16 µM (active)
6 | Cc1cccc(OCc2nc(C#N)c(NCCN(C)C)o2)c1 | > 100 µM (not active) | > 100 µM (inactive) | – | –
7 | CCc1nnc(NS(=O)(=O)c2ccc(NC(=O)/C=C/c3ccccc3Cl)cc2)s1 | – | – | 1.99 µM (active) | IC50 [5]: 13.8 µM (active)
8 | COCc1cc(C)c(C#N)c(S)n1 | – | – | – | IC50 [6]: > 100 µM (inactive); IC50 [7]: 14.1 µM (active)
9 | O=C1c2ccsc2SCCN1Cc1ccc(F)cc1 | – | – | – | EC50 [1]: > 71.5 µM (inactive)

— ChEMBL document CHEMBL1201862, “PubChem BioAssay data set” (2004)
